Laboratory results published in ChEMBL document CHEMBL5390204, “Persephacin Is a Broad-Spectrum Antifungal Aureobasidin Metabolite That Overcomes Intrinsic Resistance in Aspergillus fumigatus” (J Nat Prod, 2023).
≈ marks a conversion by molar mass, not a printed value. Calls of active or inactive are those of the source. The calls are words filed in the database; no cut-off is given here.

Experiments:
[1] = tested on: Aspergillus flavus; experiment: Antifungal activity against Aspergillus flavus NRRL485 assessed as reduction in fungal viability incubated for 48 hrs by microplate reader analysis; type: functional
[2] = tested on: [Candida] auris; experiment: Antifungal activity against multidrug-resistant Candida auris 390 assessed as inhibition in fungal growth incubated for 48 hrs by microplate reader analysis; type: functional; details: Candidozyma auris
[3] = tested on: Rhizopus arrhizus; experiment: Antifungal activity against Rhizopus oryzae FGSC 9543 assessed as reduction in fungal growth incubated for 48 hrs by microplate reader analysis; type: functional
[4] = tested on: Hamigera insecticola; experiment: Antifungal activity against Hamigera insecticola NRRL35442 assessed as reduction in fungal viability incubated for 48 hrs by microplate reader analysis; type: functional
[5] = tested on: Candida parapsilosis; experiment: Antifungal activity against Candida parapsilosis 18 assessed as inhibition in fungal growth incubated for 48 hrs by microplate reader analysis; type: functional; details: Lodderomyces parapsilosis
[6] = tested on: Candida albicans; experiment: Antifungal activity against fluconazole-resistant Candida albicans SC5314 infected in pig cornea assessed as suppression of fungal growth at 0.1 % administered post fungal infection measured after 4 days by microscopic analysis; type: functional, organism-based; details: time 4.0 day
[7] = Toxicity against human eye model assessed as irritation at 10 to 1000 uM; type: tissue-based; details: dose 10-1000 µM
[8] = tested on: Aspergillus fumigatus; experiment: Antifungal activity against Aspergillus fumigatus NRRL5109 infected in pig cornea assessed as suppression of fungal growth at 0.1 % administered post fungal infection measured after 4 days by microscopic analysis; type: functional, organism-based; details: time 4.0 day
[9] = tested on: Candida albicans; experiment: Antifungal activity against Candida albicans SC5314 infected in pig cornea assessed as suppression of fungal growth at 0.1 % administered post fungal infection measured after 4 days by microscopic analysis; type: functional, organism-based; details: time 4.0 day
[10] = Toxicity against human skin model at 10 to 1000 uM; type: tissue-based, Skin of body; details: dose 10-1000 µM

Row | SMILES | MFC<=99.9 [1] [µM] | MIC80 [2] [µM] | MFC [3] [µM] | MIC80 [3] [µM] | MFC<=99.9 [4] [µM] | MIC80 [5] [µM] | Activity [6] | Activity [7] | Activity [8] | Activity [9] | Activity [10]
1 | C[C@@H]1[C@H](O)[C@@H](C)/C=C/C=C/C=C/C=C/C=C/C=C/C=C/[C@H](O[C@@H]2O[C@H](C)[C@@H](O)[C@H](N)[C@@H]2O)C[C@@H]2O[C@](O)(C[C@@H](O)C[C@@H](O)[C@H](O)CC[C@@H](O)C[C@@H](O)CC(=O)O[C@H]1C)C[C@H](O)[C@H]2C(=O)O [AMPHOTERICIN B] | 10 (≈ 9.24 µg/mL) | 2.5 (≈ 2.31 µg/mL) | 0.3 (≈ 0.277 µg/mL) | 0.3 (≈ 0.277 µg/mL) | 10 (≈ 9.24 µg/mL) | 1.3 (≈ 1.2 µg/mL) |  |  |  |  | 
2 | CC[C@H](C)C[C@H](C)C[C@H](C)C[C@@H]1NC(=O)[C@H](C(C)C)N(C)C(=O)[C@@H]([C@H](C)CC)OC(=O)[C@H](C(C)(C)O)N(C)C(=O)[C@H](CC(C)C)NC(=O)[C@H](C(C)C)N(C)C(=O)[C@H]([C@H](C)CC)NC(=O)[C@@H]2CCCN2C(=O)CN(C)C1=O | >10 | 2.5 (≈ 2.69 µg/mL) | > 10 | > 10 | 5 (≈ 5.38 µg/mL) | 1.3 (≈ 1.4 µg/mL) | Active | Non-Toxic | Active | Active | Non-Toxic
